Laboratory results taken from patent publication US20240116910A1, “Heterocycles as WIP1 Inhibitors” (PMV Pharmaceuticals, Inc., priority 2022, published 2024).

target: recombinant His-tag Wip1(2-420) protein (amino acids #2-420) (Homo sapiens (Human), UniProt O15297); test: Wip1(2-420) phosphatase enzyme FDP assay; assay type: biochemical; conditions: fluorescein diphosphate (FDP) substrate, RT 2 hours, fluorescence Ex485/Em535; read-out: WIP1 (Truncated 2-420) FDP Assay: IC50
Sequence (O15297 2-420): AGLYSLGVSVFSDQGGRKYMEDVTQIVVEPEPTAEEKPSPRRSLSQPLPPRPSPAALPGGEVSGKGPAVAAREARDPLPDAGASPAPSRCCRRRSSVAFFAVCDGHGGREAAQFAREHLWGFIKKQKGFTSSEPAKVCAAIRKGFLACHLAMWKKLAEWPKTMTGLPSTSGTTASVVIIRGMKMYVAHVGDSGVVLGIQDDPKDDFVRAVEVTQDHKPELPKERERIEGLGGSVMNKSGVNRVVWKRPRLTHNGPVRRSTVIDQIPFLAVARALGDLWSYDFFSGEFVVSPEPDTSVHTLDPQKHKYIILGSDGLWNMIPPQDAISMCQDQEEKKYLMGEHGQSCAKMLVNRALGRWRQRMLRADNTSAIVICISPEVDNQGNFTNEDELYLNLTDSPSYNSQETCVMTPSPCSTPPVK

IC50 [nM]	Compound
7	Cc1ncc(Cl)cc1N[C@@H](C)c1ccc(C(=O)N[C@@H](CC2CC3CC3C2)C(=O)NC2CC2)s1 (stereo partly drawn) [Compound 201, (2S)-3-{bicyclo[3.1.0]hexan-3-yl}-2-({5-[(1S)-1-[(5-chloro-2-methylpyridin-3-yl)amino]ethyl]thiophen-2-yl}formamido)-N-cyclopropylpropanamide]
19	CC(Nc1cc(Cl)cnc1C(F)(F)F)c1ccc(C(=O)N[C@@H](CC2CCCC2)C(=O)NC2CC2)s1 (stereo partly drawn) [Compound 202, (2S)-2-{[5-(1-{[5-chloro-2-(trifluoromethyl)pyridin-3-yl]amino}ethyl)thiophen-2-yl]formamido}-3-cyclopentyl-N-cyclopropylpropanamide]
17	CC(Nc1cc(Cl)cnc1C(C)(C)O)c1ccc(C(=O)N[C@@H](CC2CCCC2)C(=O)NC2CC2)s1 (stereo partly drawn) [Compound 203, (2S)-2-{[5-(1-{[5-chloro-2-(2-hydroxypropan-2-yl)pyridin-3-yl]amino}ethyl)thiophen-2-yl]formamido}-3-cyclopentyl-N-cyclopropylpropanamide]
102	COCCOCCNC(=O)[C@H](CC1CCCC1)NC(=O)c1ccc([C@H](C)Nc2cc(Cl)cnc2C)s1 [Compound 204, (2S)-2-({5-[(1S)-1-[(5-chloro-2-methylpyridin-3-yl)amino]ethyl]thiophen-2-yl}formamido)-3-cyclopentyl-N-[2-(2-methoxyethoxy)ethyl]propanamide]
29	C[C@H](Nc1cc(Cl)cnc1C(=O)N(C)C)c1ccc(C(=O)N[C@@H](CC2CCCC2)C(=O)NC2CC2)s1 [Compound 205, 5-chloro-3-{[(1S)-1-(5-{[(1S)-2-cyclopentyl-1-(cyclopropylcarbamoyl)ethyl]carbamoyl}thiophen-2-yl)ethyl]amino}-N,N-dimethylpyridine-2-carboxamide]
10	Cc1ncc(Cl)cc1N[C@@H](C)c1ccc(C(=O)N[C@@H](CC2CCCC2)C(=O)N[C@H]2C[C@H](C#N)C2)s1 [Compound 211, (2S)-2-({5-[(1S)-1-[(5-chloro-2-methylpyridin-3-yl)amino]ethyl]thiophen-2-yl}formamido)-3-cyclopentyl-N-[(1r,3r)-3-cyanocyclobutyl]propanamide]
23	Cc1ncc(Cl)cc1NC(Cc1ccccc1)c1ccc(C(=O)N[C@@H](CC2CCCC2)C(=O)NC23CC(F)(C2)C3)s1 (stereo partly drawn) [Compound 212, (2S)-2-[(5-{1-[(5-chloro-2-methylpyridin-3-yl)amino]-2-phenylethyl}thiophen-2-yl)formamido]-3-cyclopentyl-N-{3-fluorobicyclo[1.1.1]pentan-1-yl}propanamide]
166	Cc1ncc(Cl)cc1N[C@H](Cc1ccccc1)c1ccc(C(=O)N[C@@H](CC2CCCC2)C(=O)NC23CC(C#N)(C2)C3)s1 [Compound 213, (2S)-2-({5-[(1R)-1-[(5-chloro-2-methylpyridin-3-yl)amino]-2-phenylethyl]thiophen-2-yl}formamido)-N-{3-cyanobicyclo[1.1.1]pentan-1-yl}-3-cyclopentylpropanamide]
20	Cc1ncc(Cl)cc1N[C@@H](Cc1ccccc1)c1ccc(C(=O)N[C@@H](CC2CCCC2)C(=O)NC23CC(C#N)(C2)C3)s1 [Compound 214, (2S)-2-({5-[(1S)-1-[(5-chloro-2-methylpyridin-3-yl)amino]-2-phenylethyl]thiophen-2-yl}formamido)-N-{3-cyanobicyclo[1.1.1]pentan-1-yl}-3-cyclopentylpropanamide]
101	Cc1ncc(Cl)cc1N[C@H](Cc1ccccc1)c1ccc(C(=O)N[C@@H](CC2CCCC2)C(=O)NC23CC(C2)C3)s1 [Compound 215, (2S)-N-{bicyclo[1.1.1]pentan-1-yl}-2-({5-[(1R)-1-[(5-chloro-2-methylpyridin-3-yl)amino]-2-phenylethyl]thiophen-2-yl}formamido)-3-cyclopentylpropanamide]
12	Cc1ncc(Cl)cc1N[C@@H](Cc1ccccc1)c1ccc(C(=O)N[C@@H](CC2CCCC2)C(=O)NC23CC(C2)C3)s1 [Compound 216, (2S)-N-{bicyclo[1.1.1]pentan-1-yl}-2-({5-[(1S)-1-[(5-chloro-2-methylpyridin-3-yl)amino]-2-phenylethyl]thiophen-2-yl}formamido)-3-cyclopentylpropanamide]
27	Cc1ncc(Cl)cc1N[C@@H](C)c1ccc(C(=O)N[C@@H](CCC(C)C)C(=O)NC2CC2)s1 [Compound 217, (2S)-2-({5-[(1S)-1-[(5-chloro-2-methylpyridin-3-yl)amino]ethyl]thiophen-2-yl}formamido)-N-cyclopropyl-5-methylhexanamide]
6	COCCn1cc(NC(=O)[C@H](CC2CCCC2)NC(=O)c2ccc([C@H](C)Nc3cc(Cl)cnc3C)s2)cn1 [Compound 220, (2S)-2-({5-[(1S)-1-[(5-chloro-2-methylpyridin-3-yl)amino]ethyl]thiophen-2-yl}formamido)-3-cyclopentyl-N-[1-(2-methoxyethyl)-1H-pyrazol-4-yl]propanamide]
6	Cc1ncc(Cl)cc1N[C@@H](C)c1ccc(C(=O)N[C@@H](CC2CCCC2)C(=O)N[C@H]2C[C@@H](C#N)C2)s1 [Compound 221, (2S)-2-({5-[(1S)-1-[(5-chloro-2-methylpyridin-3-yl)amino]ethyl]thiophen-2-yl}formamido)-3-cyclopentyl-N-[(1s,3s)-3-cyanocyclobutyl]propanamide]
68	Cc1ncc(Cl)cc1N[C@H](Cc1ccc(F)cc1)c1ccc(C(=O)N[C@@H](CC2CCCC2)C(=O)NC2CC2)s1 [Compound 222, (2S)-2-({5-[(1R)-1-[(5-chloro-2-methylpyridin-3-yl)amino]-2-(4-fluorophenyl)ethyl]thiophen-2-yl}formamido)-3-cyclopentyl-N-cyclopropylpropanamide]
11	Cc1ncc(Cl)cc1N[C@@H](Cc1ccc(F)cc1)c1ccc(C(=O)N[C@@H](CC2CCCC2)C(=O)NC2CC2)s1 [Compound 223, (2S)-2-({5-[(1S)-1-[(5-chloro-2-methylpyridin-3-yl)amino]-2-(4-fluorophenyl)ethyl]thiophen-2-yl}formamido)-3-cyclopentyl-N-cyclopropylpropanamide]
132	Cc1ncc(Cl)cc1NC(c1ccc(C(=O)N[C@@H](CC2CCCC2)C(=O)NC2CC2)s1)C(F)(F)F (stereo partly drawn) [Compound 224, (2S)-2-[(5-{1-[(5-chloro-2-methylpyridin-3-yl)amino]-2,2,2-trifluoroethyl}thiophen-2-yl)formamido]-3-cyclopentyl-N-cyclopropylpropanamide]
89	Cc1ncc(Cl)cc1NC(c1ccc(C(=O)N[C@@H](CC2CCCC2)C(=O)NC23CC(C2)C3)s1)C(F)(F)F (stereo partly drawn) [Compound 225, (2S)-N-{bicyclo[1.1.1]pentan-1-yl}-2-[(5-{1-[(5-chloro-2-methylpyridin-3-yl)amino]-2,2,2-trifluoroethyl}thiophen-2-yl)formamido]-3-cyclopentylpropanamide]
11	COCc1ncc(Cl)cc1N[C@@H](C)c1ccc(C(=O)N[C@@H](CC2CCCC2)C(=O)NC2CC2)s1 [Compound 226, (2S)-2-({5-[(1S)-1-{[5-chloro-2-(methoxymethyl)pyridin-3-yl]amino}ethyl]thiophen-2-yl}formamido)-3-cyclopentyl-N-cyclopropylpropanamide]
8	Cc1ncc(Cl)cc1N[C@@H](C)c1ccc(C(=O)N[C@@H](CC2CCCC2)C(=O)Nc2cn[nH]c2)s1 [Compound 227, (2S)-2-({5-[(1S)-1-[(5-chloro-2-methylpyridin-3-yl)amino]ethyl]thiophen-2-yl}formamido)-3-cyclopentyl-N-(1H-pyrazol-4-yl)propanamide]
5	C[C@H](Nc1cc(Cl)cnc1C(N)=O)c1ccc(C(=O)N[C@@H](CC2CCCC2)C(=O)NC2CC2)s1 [Compound 228, 5-chloro-3-{[(1S)-1-(5-{[(1S)-2-cyclopentyl-1-(cyclopropylcarbamoyl)ethyl]carbamoyl}thiophen-2-yl)ethyl]amino}pyridine-2-carboxamide]
20	CC(Nc1cc(Cl)ccc1C(C)(C)O)c1ccc(C(=O)N[C@@H](CC2CCCC2)C(=O)NC2CC2)s1 (stereo partly drawn) [Compound 229, (2S)-2-{[5-(1-{[5-chloro-2-(2-hydroxypropan-2-yl)phenyl]amino}ethyl)thiophen-2-yl]formamido}-3-cyclopentyl-N-cyclopropylpropanamide]
196	C[C@@H](Nc1cc(Cl)cnc1-c1cccc(Cl)c1)c1ccc(C(=O)N[C@@H](CC2CCCC2)C(=O)NC2CC2)s1 [Compound 230, (2S)-2-({5-[(1R)-1-{[5-chloro-2-(3-chlorophenyl)pyridin-3-yl]amino}ethyl]thiophen-2-yl}formamido)-3-cyclopentyl-N-cyclopropylpropanamide]
8	C[C@H](Nc1cc(Cl)cnc1-c1cccc(Cl)c1)c1ccc(C(=O)N[C@@H](CC2CCCC2)C(=O)NC2CC2)s1 [Compound 231, (2S)-2-({5-[(1S)-1-{[5-chloro-2-(3-chlorophenyl)pyridin-3-yl]amino}ethyl]thiophen-2-yl}formamido)-3-cyclopentyl-N-cyclopropylpropanamide]
13	C[C@H](Nc1cc(Cl)cnc1-c1cccnc1)c1ccc(C(=O)N[C@@H](CC2CCCC2)C(=O)NC2CC2)s1 [Compound 232, (2S)-2-({5-[(1S)-1-({5-chloro-[2,3′-bipyridin]-3-yl}amino)ethyl]thiophen-2-yl}formamido)-3-cyclopentyl-N-cyclopropylpropanamide]
293	C[C@@H](Nc1cc(Cl)cnc1-c1cccnc1)c1ccc(C(=O)N[C@@H](CC2CCCC2)C(=O)NC2CC2)s1 [Compound 233, (2S)-2-({5-[(1R)-1-({5-chloro-[2,3′-bipyridin]-3-yl}amino)ethyl]thiophen-2-yl}formamido)-3-cyclopentyl-N-cyclopropylpropanamide]
> 10000	Cc1ncc(Cl)cc1N[C@@H](C)c1ccc(C(=O)N[C@@H](C(=O)NC2CC2)C(C)(C)C)s1 [Compound 234, (2R)-2-({5-[(1S)-1-[(5-chloro-2-methylpyridin-3-yl)amino]ethyl]thiophen-2-yl}formamido)-N-cyclopropyl-3,3-dimethylbutanamide]
